# Target: MK2 (Homo sapiens, UniProt P49137)
# Experiment: Inhibition in solution assay of kinase MK2
# Assay type: biochemical
# Conditions: IC50 extrapolated from the dose dependent inhibition graphs (FIG. 6)
# Text: Determination of affinity of MK2 inhibitors (IC50) through inhibition in solution assay of kinase MK2 by various compounds of general formula I-VI
# MK2, sequence (P49137 whole entry, species assumed): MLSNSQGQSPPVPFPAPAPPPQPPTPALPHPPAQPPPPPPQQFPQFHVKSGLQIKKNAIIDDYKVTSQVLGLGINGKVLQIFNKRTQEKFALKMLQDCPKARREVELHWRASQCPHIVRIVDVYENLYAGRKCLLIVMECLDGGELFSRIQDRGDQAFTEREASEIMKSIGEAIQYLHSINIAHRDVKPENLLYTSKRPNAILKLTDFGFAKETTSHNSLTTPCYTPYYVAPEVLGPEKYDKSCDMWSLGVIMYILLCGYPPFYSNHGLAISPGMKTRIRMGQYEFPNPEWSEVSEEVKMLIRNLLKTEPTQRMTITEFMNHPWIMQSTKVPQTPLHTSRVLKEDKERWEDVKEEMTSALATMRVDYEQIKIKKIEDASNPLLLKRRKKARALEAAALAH
smiles,measurement,value
Cc1ccc(-c2ccc3c(ccc4sc5c(c43)NC[C@@H](C)NC5=O)n2)cn1 [PF 3644022],IC50,585 nM
